As a reminder, the IC50 is the concentration that inhibits the measured activity by half.

The experiment deals with Human recombinant carboxy-terminal his-tagged LDHA (amino acids 2-332) (Homo sapiens, UniProt P00338). In words: LDHA enzyme inhibition assay (NADH fluorescence). The following applies: LDHA IC50 (μM), 1 nM LDHA, NADH and pyruvate, stereochemistry of tested sample given.
Consider `O=C1CC(c2ccsc2)(c2cccc(OCC3CC(F)(F)C3)n2)NC(=O)C1Sc1ccccc1Cl` (single isomer, unassigned) [Example 215, 3-(2-chlorophenyl)sulfanyl-6-[6-[(3,3-difluorocyclo-butyl)methoxy]-2-pyridyl]-6-(3-thienyl)piperidine-2,4-dione], for which the IC50 was 0.014 µM.

With `O=C1CC(c2ccsc2)(c2cccc(Oc3cc(F)cc(CO)c3)n2)NC(=O)C1Sc1ccccc1Cl` (single isomer, unassigned) [Example 216, 3-(2-chlorophenyl)sulfanyl-6-[6-[3-fluoro-5-(hydroxy-methyl)phenoxy]-2-pyridyl]-6-(3-thienyl)piperidine-2,4-dione], the half-inhibitory concentration (IC50) was determined as 0.002 µM.

As for `O=C1CC(c2ccsc2)(c2cccc(OCC3CCCO3)n2)NC(=O)C1Sc1ccccc1Cl` (single isomer, unassigned) [Example 221, 3-(2-chlorophenyl)sulfanyl-6-[6-(tetrahydrofuran-2-ylmethoxy)-2-pyridyl]-6-(3-thienyl)piperidine-2,4-dione], the half-inhibitory concentration (IC50) worked out at 0.32 µM.

For `O=C1CC(c2ccsc2)(c2cccc(OCC(F)F)n2)NC(=O)C1Sc1ccccc1Cl` (single isomer, unassigned) [Example 223, 3-(2-chlorophenyl)sulfanyl-6-[6-(2,2-difluoroethoxy)-2-pyridyl]-6-(3-thienyl) piperidine-2,4-dione], the 50% inhibitory concentration (IC50) came out at 0.057 µM.

Take `O=C1CC(c2ccsc2)(c2cccc(OCC3COC3)n2)NC(=O)C1Sc1ccccc1Cl` (single isomer, unassigned) [Example 225, 3-(2-chlorophenyl)sulfanyl-6-[6-(oxetan-3-ylmethoxy)-2-pyridyl]-6-(3-thienyl) piperidine-2,4-dione]: the IC50 is 0.103 µM.

On to `CCOCCOc1cccc(C2(c3ccsc3)CC(=O)C(Sc3ccccc3Cl)C(=O)N2)n1` (single isomer, unassigned) [Example 227, 3-(2-chlorophenyl)sulfanyl-6-[6-(2-ethoxyethoxy)-2-pyridyl]-6-(3-thienyl) piperidine-2,4-dione], for which the half-inhibitory concentration (IC50) worked out at 0.015 µM.

On to `COCCCOc1cccc(C2(c3ccsc3)CC(=O)C(Sc3ccccc3Cl)C(=O)N2)n1` (single isomer, unassigned) [Example 228, 3-(2-chlorophenyl)sulfanyl-6-[6-(3-methoxypropoxy)-2-pyridyl]-6-(3-thienyl) piperidine-2,4-dione], for which the IC50 was found to be 0.419 µM.

For `O=C1CC(c2ccsc2)(c2cccc(OCC3CCC(CO)CC3)n2)NC(=O)C1Sc1ccccc1Cl` (single isomer, unassigned) [Example 233, 3-((2-chlorophenyl)thio)-6-(6-((4-(hydroxymethyl)cyclohexyl)methoxy)pyridin-2-yl)-6-(thiophen-3-yl)piperidine-2,4-dione], the half-maximal inhibitory concentration (IC50) came out at 0.017 µM.

`O=C1CC(c2ccsc2)(c2cccc(Oc3cc(F)cc(CO)c3)n2)NC(=O)C1Sc1ccccc1Cl` (single isomer, unassigned) [Example 234, 3-(2-chlorophenyl)sulfanyl-6-[6-[3-fluoro-5-(hydroxy-methyl)phenoxy]-2-pyridyl]-6-(3-thienyl)piperidine-2,4-dione]: the IC50 turned out to be 0.004 µM.

Turning to `O=C1CC(c2ccsc2)(c2cccc(OCC3CCCO3)n2)NC(=O)C1Sc1ccccc1Cl` (single isomer, unassigned) [Example 235, 3-(2-chlorophenyl)sulfanyl-6-[6-(tetrahydrofuran-2-ylmethoxy)-2-pyridyl]-6-(3-thienyl)piperidine-2,4-dione], the half-maximal inhibitory concentration (IC50) was 0.021 µM.

For `O=C1CC(c2ccsc2)(c2cccc(OCC3COC3)n2)NC(=O)C1Sc1ccccc1Cl` (single isomer, unassigned) [Example 236, 3-(2-chlorophenyl)sulfanyl-6-[6-(oxetan-3-ylmethoxy)-2-pyridyl]-6-(3-thienyl) piperidine-2,4-dione], the IC50 turned out to be 0.025 µM.

The record behind these values is patent US20170001990A1 (Genentech, Inc., priority 2014, published 2017).
